Among the data in BindingDB's records for doi:10.1111/j.1600-0773.1996.tb00261.x (Uppsala University, 1996) are Ki values, retold here.

Where a SMILES comes first, the peptide text is derived from it. [ ]: non-standard residue; d: D form. Met(O2) = CS(=O)(=O)CC[C@H](N)C(=O)O

The target of the test is Melanocortin receptor 4 (Homo sapiens, UniProt P32245).
Chain of Melanocortin receptor 4 (P32245 whole entry): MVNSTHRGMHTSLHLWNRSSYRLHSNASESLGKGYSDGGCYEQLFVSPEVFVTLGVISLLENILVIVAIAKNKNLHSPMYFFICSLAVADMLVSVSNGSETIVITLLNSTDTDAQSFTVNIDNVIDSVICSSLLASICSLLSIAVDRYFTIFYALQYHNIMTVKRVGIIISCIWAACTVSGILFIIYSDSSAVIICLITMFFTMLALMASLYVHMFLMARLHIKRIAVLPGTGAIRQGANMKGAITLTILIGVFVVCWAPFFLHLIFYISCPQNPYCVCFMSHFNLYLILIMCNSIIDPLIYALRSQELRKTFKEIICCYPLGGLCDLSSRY
One may read the Ki as the dissociation constant of the complex between target and ligand, obtained from inhibition or displacement. Low values mean higher affinity, high ones lower affinity. In the case of `CS(=O)(=O)CC[C@H](N)C(=O)N[C@@H](CCC(=O)O)C(=O)N[C@@H](Cc1c[nH]cn1)C(=O)N[C@@H](Cc1ccccc1)C(=O)N[C@H](CCCCN)C(=O)N[C@@H](Cc1ccccc1)C(=O)O` [CAS_50913-82-1] (H-[Met(O2)]EHF[dK]F-OH), the Ki was greater than 10 µM.
With `CSCC[C@H](N)C(=O)N[C@@H](CCC(=O)O)C(=O)N[C@@H](Cc1cnc[nH]1)C(=O)N[C@@H](Cc1ccccc1)C(=O)N[C@@H](CCCNC(=N)N)C(=O)N[C@@H](Cc1c[nH]c2ccccc12)C(=O)NCC(N)=O` [NSC_123787] the figure was greater than 10 µM.
With H-SMEVRGW-OH [delta MSH] the figure was greater than 10 µM; with “H-SYSMEHFRWGKPVGKKRRPVKVYPNGAEDESAEAFPLEF-OH [ACTH]”, 0.693 µM.
With “H-YVMGHFRWDRFGRRNGSSSSGVGGAAQ-OH [Gamma3-MSH]”, the Ki is greater than 10 µM.
